Patent US9637470B2, “Treatment for substance use disorders and stress disorders” (Baylor College of Medicine, priority 2013, dated 2017)

Assays:
[1] = molecular target: T1, human serotonin transporter (Homo sapiens, UniProt P31645); experiment: Serotonin transporter reuptake inhibition assay (prior art); assay type: cell-based; conditions: at 100 nM; across serotonin, norepinephrine, and dopamine transporters
T1 construct: expressed in transfected cells; host or cells: HEK-293
Experimental: Serotonin transporter reuptake inhibition was assayed using the method described by Gu H. et al., J Biol Chem., 1994, 269, p […], the entire contents of which are incorporated herein by reference. Recombinant HEK-293 cells with human serotonin transporter were plated. Test compounds were pre-incubated with cells (2×10^5/ml) in modified Tris-HEPES buffer at pH 7.1 for 20 min at 25° C. and were incubated for an additional 10 min after addition of 65 nM of [3H]Serotonin. Bound cells were filtered and counted to determine [3H]Serotonin uptake. Reduction of [3H]Serotonin uptake by 50 percent or more (≧50%) relative to 10 μM fluoxetine indicated significant inhibitory activity.

[2] = molecular target: T2, human recombinant norepinephrine transporter (Homo sapiens, UniProt P23975); conditions: at 100 nM; cited from earlier work
T2 construct: expressed in transfected cells; host or cells: MDCK
T2 sequence (P23975 whole entry): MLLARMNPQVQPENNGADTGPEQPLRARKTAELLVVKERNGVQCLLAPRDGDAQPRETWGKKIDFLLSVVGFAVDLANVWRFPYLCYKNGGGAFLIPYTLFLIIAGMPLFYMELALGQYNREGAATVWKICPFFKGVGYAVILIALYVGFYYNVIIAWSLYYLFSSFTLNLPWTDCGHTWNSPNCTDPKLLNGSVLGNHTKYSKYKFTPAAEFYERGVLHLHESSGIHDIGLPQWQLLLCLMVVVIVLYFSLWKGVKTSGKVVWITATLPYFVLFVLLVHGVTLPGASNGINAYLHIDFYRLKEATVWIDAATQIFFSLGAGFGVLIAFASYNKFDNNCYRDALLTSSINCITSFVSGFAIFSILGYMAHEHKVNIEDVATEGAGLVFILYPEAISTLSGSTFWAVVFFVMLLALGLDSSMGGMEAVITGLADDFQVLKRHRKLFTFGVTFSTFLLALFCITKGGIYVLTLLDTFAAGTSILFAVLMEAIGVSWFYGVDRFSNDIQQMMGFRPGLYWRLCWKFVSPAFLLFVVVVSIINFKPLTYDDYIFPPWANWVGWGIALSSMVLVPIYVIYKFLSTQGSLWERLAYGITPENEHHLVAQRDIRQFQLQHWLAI

[3] = molecular target: T1, human serotonin transporter; conditions: at 100 nM; cited from earlier work
[4] = molecular target: T3, human recombinant dopamine transporter (Homo sapiens, UniProt Q01959); conditions: at 100 nM; cited from earlier work
T3 construct: expressed in transfected cells; host or cells: CHO-K1
T3 sequence (Q01959 whole entry): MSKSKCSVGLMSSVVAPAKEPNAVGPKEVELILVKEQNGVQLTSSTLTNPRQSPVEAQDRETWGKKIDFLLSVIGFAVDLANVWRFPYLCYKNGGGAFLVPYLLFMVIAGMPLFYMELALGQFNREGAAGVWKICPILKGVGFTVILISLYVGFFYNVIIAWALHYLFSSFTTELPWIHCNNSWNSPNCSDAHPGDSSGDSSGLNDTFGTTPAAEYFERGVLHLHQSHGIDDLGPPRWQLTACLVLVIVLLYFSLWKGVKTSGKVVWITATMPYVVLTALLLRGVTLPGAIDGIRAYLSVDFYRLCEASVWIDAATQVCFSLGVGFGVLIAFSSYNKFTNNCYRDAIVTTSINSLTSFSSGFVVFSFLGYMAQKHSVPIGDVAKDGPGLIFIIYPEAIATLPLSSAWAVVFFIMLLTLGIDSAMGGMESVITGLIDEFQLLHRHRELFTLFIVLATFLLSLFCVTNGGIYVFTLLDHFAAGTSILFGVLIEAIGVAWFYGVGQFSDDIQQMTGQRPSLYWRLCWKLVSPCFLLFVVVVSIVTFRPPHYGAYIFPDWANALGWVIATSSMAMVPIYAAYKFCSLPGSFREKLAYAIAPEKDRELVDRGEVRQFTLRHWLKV

humans = conditions: cited from earlier work

T1 sequence (P31645 whole entry): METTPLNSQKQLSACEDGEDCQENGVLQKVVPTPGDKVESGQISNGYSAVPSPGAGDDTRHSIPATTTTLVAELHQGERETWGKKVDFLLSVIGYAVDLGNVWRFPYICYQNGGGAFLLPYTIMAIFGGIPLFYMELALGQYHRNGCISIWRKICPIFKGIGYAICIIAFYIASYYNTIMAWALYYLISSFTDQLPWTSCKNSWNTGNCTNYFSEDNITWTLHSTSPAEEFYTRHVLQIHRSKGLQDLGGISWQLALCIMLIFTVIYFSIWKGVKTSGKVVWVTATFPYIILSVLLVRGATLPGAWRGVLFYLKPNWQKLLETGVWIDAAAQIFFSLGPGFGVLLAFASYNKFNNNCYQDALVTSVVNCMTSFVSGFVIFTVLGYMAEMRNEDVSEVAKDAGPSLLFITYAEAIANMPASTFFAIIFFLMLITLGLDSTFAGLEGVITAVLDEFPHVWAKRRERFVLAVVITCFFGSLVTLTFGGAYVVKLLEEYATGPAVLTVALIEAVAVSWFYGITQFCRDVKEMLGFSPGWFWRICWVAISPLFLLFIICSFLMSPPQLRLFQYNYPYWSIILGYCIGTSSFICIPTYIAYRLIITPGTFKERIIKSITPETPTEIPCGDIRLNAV

SMILES | subtractive difference of reuptake inhibition percentages, at most [1] | reuptake inhibition percentage, norepinephrine transporter [2] | reuptake inhibition percentage, serotonin transporter [3] | reuptake inhibition percentage, dopamine transporter [4] | positive subjective effects in humans (comparators) (humans)
c1ccc2cc([C@H]([C@H]3CCCNC3)n3nccn3)ccc2c1 [Example Compound 14, (3S)-3-[(S)-naphthalen-2-yl(2H-1,2,3-triazol-2-yl)methyl]piperidine] | 24% | 70% | 76% | 52% | –
Clc1ccc([C@]23CNCC2C3)cc1Cl (stereo partly drawn) [amitifadine] | – | – | – | – | does not produce positive subjective effects
CCOC[C@@H]1[C@@H](c2ccc(Cl)c(Cl)c2)C[C@@H]2CC[C@H]1N2C [tesofensine] | – | – | – | – | does not produce positive subjective effects
